# Results as given in ChEMBL document CHEMBL1144546, “Design and synthesis of rho kinase inhibitors (III)” (Bioorg Med Chem, 2007).
# pIC50: −log10 of the molar value.
# Molecular target: Rho-associated protein kinase 2 (Rattus norvegicus) (UniProt Q62868)
# Assay: Ex vivo inhibition of Rho kinase activity in Sprague-Dawley rat serum at 30 mg/kg, po after 1 hrs
# Type: organism-based
# Parameters: dose 30 mg/kg; scale not given: the % may be the effect or the level left
# Conditions: not given
# Chain of Rho-associated protein kinase 2 (Rattus norvegicus) (Q62868 whole entry, looked up): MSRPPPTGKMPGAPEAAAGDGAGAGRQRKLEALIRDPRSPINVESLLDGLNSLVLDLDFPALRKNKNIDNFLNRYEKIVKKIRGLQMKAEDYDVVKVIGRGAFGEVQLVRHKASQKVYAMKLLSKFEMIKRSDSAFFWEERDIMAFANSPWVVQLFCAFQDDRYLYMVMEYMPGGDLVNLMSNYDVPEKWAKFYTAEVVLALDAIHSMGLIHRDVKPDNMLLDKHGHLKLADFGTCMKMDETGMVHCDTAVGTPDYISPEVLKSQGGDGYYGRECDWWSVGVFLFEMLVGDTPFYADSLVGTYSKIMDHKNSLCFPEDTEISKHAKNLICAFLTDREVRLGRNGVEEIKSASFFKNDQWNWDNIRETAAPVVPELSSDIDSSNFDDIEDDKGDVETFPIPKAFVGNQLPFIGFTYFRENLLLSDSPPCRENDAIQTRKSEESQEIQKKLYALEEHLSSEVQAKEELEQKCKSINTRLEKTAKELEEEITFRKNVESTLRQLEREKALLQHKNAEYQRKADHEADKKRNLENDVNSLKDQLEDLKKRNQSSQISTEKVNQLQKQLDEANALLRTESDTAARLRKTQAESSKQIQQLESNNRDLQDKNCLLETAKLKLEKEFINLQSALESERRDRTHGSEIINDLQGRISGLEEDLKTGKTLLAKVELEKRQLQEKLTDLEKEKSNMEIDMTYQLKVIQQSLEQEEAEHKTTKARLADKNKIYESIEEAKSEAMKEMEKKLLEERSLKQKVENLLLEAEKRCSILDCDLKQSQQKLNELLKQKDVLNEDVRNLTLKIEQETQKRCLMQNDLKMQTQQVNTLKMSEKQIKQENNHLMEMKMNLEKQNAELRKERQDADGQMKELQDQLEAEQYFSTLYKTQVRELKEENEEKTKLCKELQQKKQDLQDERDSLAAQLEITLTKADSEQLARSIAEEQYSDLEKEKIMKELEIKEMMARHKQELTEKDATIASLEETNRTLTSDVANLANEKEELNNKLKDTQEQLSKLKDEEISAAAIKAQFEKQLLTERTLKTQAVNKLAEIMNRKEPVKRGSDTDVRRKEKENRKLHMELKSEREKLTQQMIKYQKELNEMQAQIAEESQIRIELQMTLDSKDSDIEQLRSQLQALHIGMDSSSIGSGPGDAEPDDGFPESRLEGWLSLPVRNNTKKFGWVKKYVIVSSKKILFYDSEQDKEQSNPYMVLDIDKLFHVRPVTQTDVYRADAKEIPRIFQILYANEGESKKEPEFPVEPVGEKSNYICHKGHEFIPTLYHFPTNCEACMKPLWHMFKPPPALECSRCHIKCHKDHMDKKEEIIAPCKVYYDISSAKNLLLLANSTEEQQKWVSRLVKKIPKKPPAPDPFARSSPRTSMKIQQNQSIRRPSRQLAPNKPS
row,SMILES,Activity [%]
1,Nc1cccc(CN2CC[C@@H](Nc3cccc4cnccc34)C2)c1,52
2,Nc1cccc(CN2CC[C@H](Nc3cccc4cnccc34)C2)c1,30

# Molecular target: Rho-associated protein kinase 2 (Rattus norvegicus) (UniProt Q62868)
# Assay: Ex vivo inhibition of Rho kinase activity in Sprague-Dawley rat serum at 30 mg/kg, po after 4 hrs
# Type: organism-based
# Parameters: dose 30 mg/kg; scale not given: the % may be the effect or the level left
# Conditions: not given
row,SMILES,Activity [%]
1,Nc1cccc(CN2CC[C@@H](Nc3cccc4cnccc34)C2)c1,42
2,Nc1cccc(CN2CC[C@H](Nc3cccc4cnccc34)C2)c1,17

# Molecular target: Rho-associated protein kinase 2 (Rattus norvegicus) (UniProt Q62868)
# Assay: Ex vivo inhibition of Rho kinase activity in Sprague-Dawley rat serum at 30 mg/kg, po after 8 hrs
# Type: organism-based
# Parameters: dose 30 mg/kg; scale not given: the % may be the effect or the level left
# Conditions: not given
row,SMILES,Activity [%]
1,Nc1cccc(CN2CC[C@@H](Nc3cccc4cnccc34)C2)c1,26
2,Nc1cccc(CN2CC[C@H](Nc3cccc4cnccc34)C2)c1,0

# Test system: not listed separately
# Assay: Metabolic stability in rat liver microsome at 10 uM after 30 mins
# Conditions: liver microsomes
row,SMILES,"remaining at 0.5 h, 10 µM [%]"
1,Nc1cccc(CN2CCC(Nc3cccc4cnccc34)C2)c1 (stereo unspecified),67

# Molecular target: T1, Rho-associated protein kinase (Homo sapiens, UniProt O75116+Q13464)
# Assay: Inhibition of TPA-induced Rho kinase dependent MBS phosphorylation in MDCK 2 cells
# Type: functional, cell-based
# Conditions: Canis lupus familiaris
# T1 sequence (O75116 whole entry, looked up): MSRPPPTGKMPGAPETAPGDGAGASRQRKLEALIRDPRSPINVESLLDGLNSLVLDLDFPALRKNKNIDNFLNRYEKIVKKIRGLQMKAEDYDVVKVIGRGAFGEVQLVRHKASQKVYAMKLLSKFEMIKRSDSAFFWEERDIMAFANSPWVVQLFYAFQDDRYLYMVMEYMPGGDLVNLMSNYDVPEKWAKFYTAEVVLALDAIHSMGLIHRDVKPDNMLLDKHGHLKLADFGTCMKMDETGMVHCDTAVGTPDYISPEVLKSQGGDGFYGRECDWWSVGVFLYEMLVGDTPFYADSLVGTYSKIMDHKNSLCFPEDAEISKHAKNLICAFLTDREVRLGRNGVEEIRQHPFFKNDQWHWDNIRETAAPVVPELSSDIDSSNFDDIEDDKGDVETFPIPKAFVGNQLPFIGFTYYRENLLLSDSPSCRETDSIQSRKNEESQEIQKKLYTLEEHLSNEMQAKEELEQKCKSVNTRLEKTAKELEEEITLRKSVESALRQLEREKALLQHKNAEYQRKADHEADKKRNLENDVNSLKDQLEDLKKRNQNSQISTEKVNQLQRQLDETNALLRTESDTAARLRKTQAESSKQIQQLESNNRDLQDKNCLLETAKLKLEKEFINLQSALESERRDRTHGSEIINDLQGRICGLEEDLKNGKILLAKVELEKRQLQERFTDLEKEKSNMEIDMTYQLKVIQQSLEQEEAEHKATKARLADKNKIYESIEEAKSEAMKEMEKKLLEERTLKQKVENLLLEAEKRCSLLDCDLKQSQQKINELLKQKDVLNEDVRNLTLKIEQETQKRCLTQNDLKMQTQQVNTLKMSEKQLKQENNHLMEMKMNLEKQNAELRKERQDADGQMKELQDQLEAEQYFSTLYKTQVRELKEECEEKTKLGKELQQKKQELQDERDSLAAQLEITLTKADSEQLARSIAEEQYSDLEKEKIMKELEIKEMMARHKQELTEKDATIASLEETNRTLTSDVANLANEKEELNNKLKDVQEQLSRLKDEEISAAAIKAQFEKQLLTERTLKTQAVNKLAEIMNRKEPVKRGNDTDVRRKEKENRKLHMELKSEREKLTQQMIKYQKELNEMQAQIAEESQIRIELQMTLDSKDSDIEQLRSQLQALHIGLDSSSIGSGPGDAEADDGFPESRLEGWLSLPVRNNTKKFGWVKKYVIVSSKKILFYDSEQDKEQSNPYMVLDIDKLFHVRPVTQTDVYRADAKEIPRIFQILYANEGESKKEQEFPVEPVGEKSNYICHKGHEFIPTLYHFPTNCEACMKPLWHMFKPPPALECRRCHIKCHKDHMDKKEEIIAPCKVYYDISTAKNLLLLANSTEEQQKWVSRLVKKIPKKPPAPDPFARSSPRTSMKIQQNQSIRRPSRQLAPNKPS
# T1 sequence (Q13464 whole entry, looked up): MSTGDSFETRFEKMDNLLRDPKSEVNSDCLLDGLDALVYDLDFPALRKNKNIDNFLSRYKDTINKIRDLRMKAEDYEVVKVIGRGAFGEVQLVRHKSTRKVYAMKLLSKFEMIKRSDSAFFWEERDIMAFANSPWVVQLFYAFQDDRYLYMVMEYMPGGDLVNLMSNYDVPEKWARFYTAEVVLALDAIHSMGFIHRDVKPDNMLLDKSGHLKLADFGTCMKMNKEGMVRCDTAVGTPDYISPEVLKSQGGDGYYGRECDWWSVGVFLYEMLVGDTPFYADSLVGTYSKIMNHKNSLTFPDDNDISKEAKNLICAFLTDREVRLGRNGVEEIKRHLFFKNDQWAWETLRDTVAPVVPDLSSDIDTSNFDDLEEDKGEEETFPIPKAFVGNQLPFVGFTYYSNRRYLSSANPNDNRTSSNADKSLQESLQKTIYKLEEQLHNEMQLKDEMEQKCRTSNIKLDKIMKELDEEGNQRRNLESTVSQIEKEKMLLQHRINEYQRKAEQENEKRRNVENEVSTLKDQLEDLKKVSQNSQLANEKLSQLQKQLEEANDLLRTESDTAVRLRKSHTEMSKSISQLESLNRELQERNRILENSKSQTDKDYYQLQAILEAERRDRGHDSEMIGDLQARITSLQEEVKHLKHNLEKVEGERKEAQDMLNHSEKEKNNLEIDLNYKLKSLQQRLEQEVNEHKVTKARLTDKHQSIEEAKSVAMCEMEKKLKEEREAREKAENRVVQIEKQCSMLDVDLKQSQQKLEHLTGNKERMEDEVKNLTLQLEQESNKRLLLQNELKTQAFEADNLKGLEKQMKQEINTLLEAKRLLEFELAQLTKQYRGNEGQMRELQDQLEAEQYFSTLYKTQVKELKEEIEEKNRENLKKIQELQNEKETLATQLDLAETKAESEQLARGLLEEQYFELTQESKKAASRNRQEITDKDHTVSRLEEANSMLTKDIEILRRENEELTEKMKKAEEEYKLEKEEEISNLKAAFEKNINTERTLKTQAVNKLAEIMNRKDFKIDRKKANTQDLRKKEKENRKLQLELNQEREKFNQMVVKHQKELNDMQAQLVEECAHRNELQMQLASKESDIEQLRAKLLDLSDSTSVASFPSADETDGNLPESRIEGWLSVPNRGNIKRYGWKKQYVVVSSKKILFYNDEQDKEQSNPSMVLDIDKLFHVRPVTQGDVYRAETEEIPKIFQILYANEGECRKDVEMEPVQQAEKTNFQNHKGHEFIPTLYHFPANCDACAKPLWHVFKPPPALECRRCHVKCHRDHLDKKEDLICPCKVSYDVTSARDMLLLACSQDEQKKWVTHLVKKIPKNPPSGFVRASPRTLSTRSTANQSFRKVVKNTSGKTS
row,SMILES,Activity
1,Nc1cccc(CN2CC[C@@H](Nc3cccc4cnccc34)C2)c1,Dose-dependent effect

# Molecular target: T1, Rho-associated protein kinase
# Assay: not given
# Conditions: not given
row,SMILES,IC50 [µM]
1,c1ccc(CN2CCC(Nc3cccc4cnccc34)CC2)cc1,0.14
2,Fc1cccc(F)c1CN1CCC(Nc2cccc3cnccc23)C1 (stereo unspecified),0.075
3,CC(C)CN1CCC(Nc2cccc3cnccc23)CC1,0.21
4,Nc1cccc(CN2CCC(Nc3cccc4cnccc34)C2)c1 (stereo unspecified),0.275
5,Nc1cccc(CN2CC[C@@H](Nc3cccc4cnccc34)C2)c1,0.025
6,CC(C)CCN1CCCC(Nc2cccc3cnccc23)C1 (stereo unspecified),0.27
7,CCCN[C@H]1CC[C@H](Nc2cccc3cnccc23)CC1,0.18
8,c1ccc(CCN[C@H]2CC[C@@H](Nc3cccc4cnccc34)CC2)cc1,0.58
9,CCCN[C@H]1CC[C@@H](Nc2cccc3cnccc23)CC1,0.18
10,c1cc(N[C@H]2CC[C@@H](NC3CC3)CC2)c2ccncc2c1,0.195
11,c1ccc(CCN[C@H]2CC[C@H](Nc3cccc4cnccc34)CC2)cc1,0.44

# Continued, values first:
row,IC50 [µM],SMILES
1,0.345,CCCN1CCC(Nc2cccc3cnccc23)CC1
2,0.21,Clc1ccccc1CN1CCCC(Nc2cccc3cnccc23)C1 (stereo unspecified)
3,0.095,Fc1ccc(CN2CCC(Nc3cccc4cnccc34)C2)cc1 (stereo unspecified)
4,0.1,Clc1ccccc1CN1CCC(Nc2cccc3cnccc23)C1 (stereo unspecified)
5,0.065,Clc1ccc(CN2CCC(Nc3cccc4cnccc34)C2)cc1 (stereo unspecified)
6,0.235,Nc1ccc(CN2CCC(Nc3cccc4cnccc34)C2)cc1 (stereo unspecified)
7,0.31,Nc1cccc(CN2CC[C@H](Nc3cccc4cnccc34)C2)c1
8,0.065,Clc1cccc(CN2CCC(Nc3cccc4cnccc34)C2)c1 (stereo unspecified)
9,0.265,Clc1cccc(CN2CCCC(Nc3cccc4cnccc34)C2)c1 (stereo unspecified)
10,0.07,c1cc(N[C@H]2CC[C@H](NC3CC3)CC2)c2ccncc2c1
11,0.205,Nc1ccccc1CN1CCC(Nc2cccc3cnccc23)C1 (stereo unspecified)

# Molecular target: not listed separately
# Assay: Inhibition of MCP1-induced chemotaxis in U937 cells overexpressing CCR2
# Conditions: u-937
row,SMILES,pIC50
1,O=S(=O)(c1cccc2cnccc12)N1CCCNCC1 [FASUDIL],4.46
